Values quoted from earlier work in paper PMC7496964 (Chemistry (Weinheim an Der Bergstrasse, Germany), 2020).

Biological target: human langerin ECD (Homo sapiens, UniProt Q9UJ71)
Sequence (Q9UJ71 65-328 limits assumed): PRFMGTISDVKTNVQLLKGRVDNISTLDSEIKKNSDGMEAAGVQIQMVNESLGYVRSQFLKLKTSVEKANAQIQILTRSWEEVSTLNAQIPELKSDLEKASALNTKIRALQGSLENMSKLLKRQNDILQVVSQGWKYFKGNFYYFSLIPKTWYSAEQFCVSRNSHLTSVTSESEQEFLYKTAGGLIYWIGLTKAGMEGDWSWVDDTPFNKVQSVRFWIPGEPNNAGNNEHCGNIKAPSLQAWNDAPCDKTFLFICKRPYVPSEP

## 1-α-azido B-trisaccharide [compound 10]
  Langerin affinity (in words), literature: weak affinity
